The values below come from publication PMC3501516, “Anti-Diabetic Efficacy and Impact on Amino Acid Metabolism of GRA1, a Novel Small-Molecule Glucagon Receptor Antagonist” (PLoS ONE, 2012).

Series [1] is described as follows: Pharmacokinetics / plasma GRA1 concentrations in hGCGR mice. In kind it is in vivo, hGCGR mouse. The conditions noted are these: single oral dose 2 mg/kg.
The target of another series is T1, mouse GCGR (Mus musculus, UniProt Q61606).
T1 construct: expressed in transfected cells
In words: Inhibition of glucagon-stimulated cAMP production in CHO cells expressing mouse GCGR. In kind it is cell-based. Background: Cyclic AMP is a second messenger, typically raised through Gs and lowered through Gi signalling.

Series [2] in a line: Pharmacokinetics / plasma GRA1 concentrations in rhesus monkeys. In kind it is in vivo, rhesus monkey.
Another series relates to hGCGR.ob/ob mice. Kind of series: Antihyperglycemic efficacy in hGCGR.ob/ob mice (acute and chronic). In kind it is in vivo, hGCGR.ob/ob mouse. The source says:
The present study made use of a line of hGCGR-expressing mouse (“hGCGR mouse”) generated previously by substituting the hGCGR gene for the mouse GCGR gene. These mice were crossed with C57BL/6J.ob/+ mice (Jackson Laboratories, Bar Harbor, ME) to obtain an hGCGR.ob/+ mouse line. The hGCGR.ob/+ mice were then intercrossed to obtain hGCGR.ob/ob, hGCGR.ob/+, and hGCGR.+/+ mice (with the hGCGR.ob/+ and hGCGR.+/+ mice serving as littermate controls). […] obese (DIO) hGCGR mice were generated by maintaining hGCGR mice on a high-fat diet (HFD) in which 45–60% of calories were in fat (Product S3282, Bio-Serv, Frenchtown, NJ). High-fat-diet-streptozotocin-treated (HFD/STZ) diabetic mice were generated in-house as previously described.
Acute glucose lowering was studied in non-fasted hGCGR.ob/ob mice and HFD/STZ mice administered single doses p.o. of 1, 3 and 10 mg/kg GRA1 in 10 mL/kg 0.5% aqueous methylcellulose. Animals were fasted during the interval between dosing and the final blood glucose measurement. Glucose was measured in blood from tail bleeds using a OneTouch glucometer. In the experiments with hGCGR HFD/STZ mice, treatment groups were matched with respect to body weight and blood glucose levels.
Animals were dosed chronically with GRA1 and the DPP-4 inhibitor des-fluoro-sitagliptin by administering these agents as food admixtures. The admixtures were prepared in-house and by Research Diets (New Brunswick, NJ), with drug concentrations adjusted weekly on the basis of average food consumption and animal weight to provide targeted daily doses. In the GRA1 experiments, the targeted doses were 3, 6, 10, and 30 mg/kg•day. In des-fluoro-sitagliptin experiments, the targeted dose was 200 mg/kg•day, a relatively high amount necessary because this compound has a half-life in rodents of 1–2 h.
Plasma glucagon and active GLP-1 were measured using commercial ELISA kits (Linco Research Immunoassay, St. Charles, MO). […] Plasma insulin was determined by ELISA with a commercial kit (ALPCO Diagnostics, Windham, NH). Plasma concentrations of glycated hemoglobin A1c (HbA1c) were measured using a Micromat II test kit from Bio-Rad Laboratories (Hercules, CA). Total cholesterol, low-density lipoprotein cholesterol (LDL-c) and non-LDL-c, and aspartate aminotransferase were measured using a Roche P Modular Clinical Chemistry analyzer (Indianapolis, IN).
Figure 4 GRA1 lowers blood glucose in the DIO hGCGR and hGCGR.ob/ob mouse. Mean (±SEM) blood glucose concentrations in (A) non-fasted and (B) fasted DIO hGCGR mice treated with approximately 3 and 10 mg/kg·day GRA1 provided as a food admixture. (Additional data from this study are in Table 2). (C) Mean (±SEM) blood glucose concentrations in the hGCGR.ob/ob mouse following single oral doses of 1, 3, or 10 mg/kg GRA1 or vehicle. (D) Mean (±SEM) non-fasted blood glucose concentrations in hGCGR.ob/ob mice treated for 2–8 weeks with control diet or 10 mg/kg·day GRA1 administered as diet admixture. *p<0.05, **p<0.01, and ***p<0.001 in timepoint-matched comparisons with controls; n = 8 in each group.

Broadly, the half-life is the time needed for the level to fall by half in the phase considered. What is called IC50 is the concentration that inhibits the measured activity by half. Read a low IC50 as inhibition by little substance.

T1 sequence (Q61606 27-485): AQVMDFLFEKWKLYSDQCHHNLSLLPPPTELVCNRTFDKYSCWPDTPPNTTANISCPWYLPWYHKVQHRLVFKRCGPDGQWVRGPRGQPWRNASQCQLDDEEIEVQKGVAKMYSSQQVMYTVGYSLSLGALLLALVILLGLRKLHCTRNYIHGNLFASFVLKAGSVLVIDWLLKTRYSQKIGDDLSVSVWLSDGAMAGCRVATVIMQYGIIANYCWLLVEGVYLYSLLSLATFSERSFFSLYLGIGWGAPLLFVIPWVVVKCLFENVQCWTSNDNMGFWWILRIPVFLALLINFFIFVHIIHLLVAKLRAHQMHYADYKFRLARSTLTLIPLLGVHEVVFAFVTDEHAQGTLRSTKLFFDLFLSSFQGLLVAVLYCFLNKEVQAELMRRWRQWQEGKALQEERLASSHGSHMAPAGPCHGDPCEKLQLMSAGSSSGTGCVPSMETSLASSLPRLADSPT
Protocol for mouse GCGR: Transfected Chinese hamster ovary (CHO) cell lines were acquired and maintained as previously described [17], [20]. These included separate cell lines stably expressing human GCGR (hGCGR), mouse GCGR, rhesus GGCR, glucose-dependent insulinotropic peptide receptor (GIPR), GLP-1 receptor (GLP-1R), pituitary adenylate cyclase-activating polypeptide receptor type 1 (PAC1R), and vasoactive adenylate cyclase-activating polypeptide receptor type 2 (VPAC2R). […] Functional antagonism was assayed by measuring the production of cAMP in intact CHO cells stimulated by agonists specific for their cognate receptors (i.e., glucagon for GCGR-expressing cell lines, GIP for the GIPR-expressing line, etc.).

With `COc1ccc2cc(-c3cc(-c4cc(C(F)(F)F)ccc4F)nn3[C@@H](C)c3ccc(C(=O)NCCC(=O)O)cc3)ccc2c1` [GRA1, N-[4-((1S)-1-{3-(2-fluoro-5-trifluoromethylphenyl)-5-[6-methoxynaphth-2-yl]-1H-pyrazol-1-yl}ethyl)benzoyl]-β-alanine], in series [1] (mouse, plasma, read-out: Apparent plasma terminal half-life (converted)), the half-life was 6.8 h. Also, in series [1], the “Mean rate of absorption from the gut” value was 69% and the Route of excretion entry is “nearly all absorbed drug was subsequently excreted unchanged via the bile”. This compound also came in with an IC50 at mouse GCGR of 178 nM. In series [2] (rhesus monkey, plasma, oral, 1 mg/kg, 1 h postdose (glucagon challenge)), the concentration at 1 h was 200 nM. Besides, the half-life in series [2] (rhesus monkey, plasma, single oral dose 2 mg/kg, read-out: Apparent plasma terminal half-life (converted)) was 6.3 h. For the same compound, in series [2] (single oral dose 2 mg/kg), the “Fraction of the dose absorbed” value amounted to 55% and the Route of excretion result is “nearly all absorbed drug was excreted unchanged via the bile”. Also, the “Non-fasted blood glucose lower than control diet” value in the series on hGCGR.ob/ob mice (10 mg/kg•day, 2, 4 and 8 weeks) is given as 40–50%. Also, the “Food intake, body weight, fasting insulin levels vs control diet” value in the series with hGCGR.ob/ob mice (10 mg/kg•day, 8 weeks (data not shown)) was “No differences”. The “Mean fasted blood glucose” value in the series on hGCGR.ob/ob mice (10 mg/kg•day, 8 weeks, control diet 189±36) amounted to 90.8 ± 7.8 mg/dL. Besides, the Mean plasma glucagon with hGCGR.ob/ob mice (10 mg/kg•day, 8 weeks, control diet 959±90) stood at 1356 ± 113 pg/mL. Also, in the series on hGCGR.ob/ob mice (10 mg/kg•day, 8 weeks, controls 15.6±2.0), the “Total GLP-1” value is 26.5 ± 3.0 pM. For the same compound, in the series on hGCGR.ob/ob mice (single doses of 3 and 10 mg/kg vs vehicle), the “Effect on blood glucose, single dose” value is recorded as “lowered blood glucose significantly”.
